Experimental data published in patent US7619005B2, “Methods for treating cognitive impairment in humans with Multiple Sclerosis” (Cognition Pharmaceuticals LLC, priority 2000, dated 2009).
“And” between values parts separate entries of the source, which are not always exact repeats. Equal entries are not always repeated.

Columns and labels:
Long-Evans rats [1] = experiment: Locomotor activity, activity monitoring chambers; format: in vivo, rat
Procedure: Activity monitoring was conducted in a Plexiglas open-field box measuring 30 by 30 cm. […] The location of the animal within the cage was detected by breaks in the infrared light beams. Light beams status information was collected and rapidly analyzed by a computerized activity monitoring system (VersaMax System, Accuscan Instruments.)
In order to determine whether SN522 had any adverse effects on locomotor or exploratory activity, rats were injected with saline or 0.25, 0.5, 2.5 and 5.0 mg/kg of SN522 and immediately afterwards placed into the activity monitoring chambers for a period of three hours.

rats [2] = experiment: Inhibitory Avoidance task, normal rats; conditions: for latency to enter the dark side of the apparatus: each animal, rank-ordered, 24 h retention
Procedure: The paradigms consists of one training trial and one retention trial. Test substances may be administered to the rats either before or after training. Improved memory, as a result of test substance administration, is evident on the retention trial.
(§1) Two seconds after entering the dark chamber, a continuous 0.46 mA foot-shock was delivered through the floor grid for two seconds. The animal was then removed from the apparatus and returned to the home cage. The animals received a retention test 24 hours following training. The retention test was identical to training except that no foot-shock was delivered. […] Data was collected by the Graphic State™ Notation software, and was recorded onto an appropriate data sheet.

[3] = system: rats with bilateral lesions of the fornix; experiment: Inhibitory Avoidance task, fornix lesion rats
Procedure: as §1

rats [4] = experiment: Activity monitoring, open-field box, 10 minutes; conditions: 2 mg/kg; entire 10 minute session (FIG. 7)
Procedure: Activity monitoring was conducted in a Plexiblas open-field box. Activity levels were measured by a grid of infrared light beams that traversed the cage from left to right and back to front. The location of the animal was detected by breaks in the infrared light beams. General behavior and activity levels were recorded by a computerized monitoring system for a period of ten minutes. The analyzed behaviors included but were not limited to; horizontal activity, total distance moved, movement time, number of movements, number of rears, number of stereotyped movements, and time spent resting. Data was collected on-line using Versa Max (Version 1.83) computer software and a Hewlett Packard Pavilion computer.

Long-Evans rats [5] = experiment: Passive Avoidance test, injection immediately after training; conditions: i.p. immediately after training; p values=0.007 (C105), 0.0004 (d-amphetamine), 0.03 (SN522)
Long-Evans rats [6] = experiment: Water Maze acquisition; format: in vivo, rat; conditions: higher dose (0.5 mg/kg i.p.); p>0.05
Procedure: Water Maze testing (Morris, R., J. Neurosci Methods 11:47-60 (1984)) was conducted in a galvanized steel pool, painted white, measuring 180 cm in diameter and 60 cm in height. The pool was equipped with a removable circular platform (10 cm in diameter) made of clear Plexiglas. The pool was filled with water (26° C.) to a level of 1 cm above the surface of the platform. Nontoxic white paint was added to the water to obscure the platform's appearance. The pool was divided conceptually into four quadrants and the platform was located in the NW quadrant 30 cm from the pool wall. Extramaze cues were provided by large geometric shapes adhered to curtains that surrounded two sides of the pool, and by shelving units, a sink, and posters on the visible walls.
The training procedure involved placing the rat into the water, with the rat's head facing the wall of the pool, at one of four different starting points. The rat was allowed 60 seconds to locate the hidden platform. […] After 15 seconds spent on the platform at the end of each trial, the rat was removed from the pool and injected with saline or SN522 (0.25 and 0.5 mg/kg, i.p.). The rat was dried, and returned to its home cage. One trail was conducted each day for 10 days. The latency to reach the platform (escape latency) was recorded on each days training trial.

Long-Evans rats [7] = experiment: Tailflick test of analgesia (SN522); format: in vivo, rat; conditions: 0.25, 0.5, 2.5 and 5.0 mg/kg i.p.; 15, 30, 60 minutes
Procedure: The tail-flick response was assessed using a radiant heat tail flick monitor (Accuscan Instruments model TFS) equipped with a radiant heat element and two light beam sensors to detect tail movement.
In order to determine whether SN522 has any analgesic properties, rats (n=10 per treatment group) were injected with saline or SN522 (0.25, 0.5, 2.5 and 5.0 mg/kg, i.p.) and tested at four time points: immediately prior to injection, and again 15, 30, and 60 minutes following drug administration for a tail flick response (D'Amour, F. E., et al., J. Pharmacol. Exp. Ther. 72:174-179 (1941)). To test the tail-flick, the animal was placed on top of the Tail-Flick monitor and gently held in place with a cotton towel. The tail of the animal was placed in a shallow groove lying between the two sensors and over the top of the radiant heat wire. The heat element was activated, and the latency for the animal to flick its tail out of the groove and away from the heat source was automatically recorded via activation of the sensors. The intensity of the heat source was adjusted so that the animal flicked its tail within 3-4 seconds. A 10 second cutoff was imposed to avoid tissue damage. The animal was returned to its home cage immediately following testing.

scopolamine treated rats = experiment: Passive Avoidance in scopolamine treated rats (memory impairment); format: in vivo, rat
normal subjects [8] = experiment: Phase I studies of l-methamphetamine: RAVLT word recall
normal subjects [9] = experiment: Phase I studies of l-methamphetamine: safety and tolerability
normal subjects [10] = experiment: CDR computerized cognitive assessment system, l-methamphetamine
Procedure: A randomized, double-blind, placebo-controlled, dose escalation study in human subjects, who were not suffering from an impairment in a memory or cognitive process (“normal subjects”), was conducted to assess the safety, tolerability and pharmacokinetics and improvement in cognitive processes, including memory, following the administration of l-methamphetamine (25 mg, 50 mg, 100 mg, 150 mg).
A selection of tasks from the CDR computerized cognitive assessment system was administered and parallel forms of the tests were presented on each testing session. […] All tasks were computer-controlled, the information was presented on high resolution screens, and the responses recorded via a response module containing two buttons, one marked ‘NO’ and the other ‘YES’. The tracking task additionally involved the use of a joystick. The test battery takes about 20-25 minutes to perform. The tests were administered in the following order: • Picture Presentation: A series of 20 pictures was presented on the screen at the rate of 1 every 3 seconds for the subject to remember. No data were recorded from this task. • Simple Reaction Time: The subject was instructed to press the ‘YES’ response button as quickly as possible every time the word ‘YES’ is presented on the screen. […] A series of digits was then presented in the center of the screen at the rate of 150 per minute and the subject was required to press the ‘YES’ button as quickly as possible every time the digit in the series matches the target digit. There were 45 targets in the series. The task lasted for 3 minutes. • Choice Reaction Time: Either the word ‘NO’ or the word ‘YES’ was presented on the screen and the subject was instructed to press the corresponding button as quickly as possible. There were 50 trials for which each stimulus word was chosen randomly with equal probability and there was a varying inter-stimulus interval. • Rapid Visual Information Processing: A series of digits was presented on the screen at the rate of 100 per minute. The subject had to detect targets consisting of consecutive sequences of either three odd digits or three even digits, and to report them by pressing the ‘YES’ button as quickly as possible. There were 32 targets. The task lasted for 4 minutes. • Tracking: The subject used a joystick to track a randomly moving target on the screen for one minute. The distance off-target per second was recorded. • Spatial Working Memory: A picture of a house was presented on the screen with four of its nine windows lit. The subject had to memorize the position of the lit windows. For each of the 36 subsequent presentations of the house, the subject was required to decide whether or not the one window that was lit was also lit in the original presentation. […]

## C[C@H](N)Cc1ccccc1 [(S)-(+)-amphetamine, reference compound]
Long-Evans rats [1]; higher doses (0.5, 2.5, 5.0 mg/kg ip) (FIG. 24)
  effects on activity: profound increases in activity
Rats [2]; 0.5 mg/kg
  latency to enter the dark side of the apparatus: 65.0 seconds and 110.0 seconds and 153.0 seconds and 207.0 seconds (2×) and 2.0 seconds and 26.0 seconds and 38.0 seconds and 39.0 seconds and 63.0 seconds
Rats [2]; 1.0 mg/kg
  latency to enter the dark side of the apparatus: 34.0 s and 35.0 s and 47.0 s and 157.0 s and 263.0 s and 7.0 s and 17.0 s and 19.0 s and 25.0 s and 31.0 s
Rats [2]; 2.0 mg/kg one hour before training (Tables 1 and 2)
  Inhibitory Avoidance performance, dose experiment: appeared to enhance performance
Rats [2]; 2.0 mg/kg, one hour before (FIG. 5), p<0.05 vs all other groups
  IA performance of normal rats: dramatically enhanced the performance of normal rats
Rats [2]; 2.0 mg/kg, replicated experiments (FIG. 6), t(76)=3.416, p<0.001
  memory for the Inhibitory Avoidance task: significantly enhanced memory for the Inhibitory Avoidance task
Rats [2]; 2.0 mg/kg
  latency to enter the dark side of the apparatus: 190.0 s and 230.0 s and 245.0 s and 457.0 s and 517.0 s and 33.0 s and 63.0 s and 82.0 s and 84.0 s and 101.0 s
Rats [2]; no additional training or drug (FIG. 4), p<0.01
  second retention test one week after the first retention test: performed significantly better than rats that had received control injections of vehicle solution
[3]; 2.0 mg/kg (FIG. 5)
  IA performance of fornix animals compared with normal, saline injected animals: not significantly different from normal, saline injected animals
[3]; 2.0 mg/kg, one hour before (FIG. 5)
  IA performance of fornix lesion rats: appeared to improve the performance of the fornix lesion rats
Rats [4]
  locomotor activity: clear and significant enhancement in locomotor activity
Long-Evans rats [5]
  dose that significantly improved performance on the passive avoidance task: 2.0 mg/kg

## CN[C@H](C)Cc1ccccc1 [SN522, levo-methamphetamine]
Long-Evans rats [6]
  acquisition (escape latency) compared with saline group: did not reveal any statistical differences
Long-Evans rats [1]; 0.5 mg/kg, p=0.028
  activity relative to saline control: only modest increases in activity
Long-Evans rats [1]; 0.25 and 0.5 mg/kg ip
  motor behavior (FIG. 23 description): no or modest changes in motor behavior
Long-Evans rats [1]; 2.5 and 5.0 mg/kg, p<0.001
  activity relative to saline control: small, but significant increases in activity
Long-Evans rats [1]; doses ten times over the therapeutic doses (2.5, 5.0 mg/kg ip)
  activity (FIG. 23 description): only mild increases in activity
Long-Evans rats [7]
  pain sensitivity (tail flick latency): does not alter pain sensitivity
Scopolamine treated rats; 0.25, 0.5 and 1.0 mg/kg, p values=0.01, 0.04 and 0.007
  performance vs animals treated with scopolamine and saline: performed significantly better than animals treated with scopolamine and saline
Scopolamine treated rats; SN522 i.p. immediately after training, log rank p=0.02 (FIG. 32)
  alleviation of scopolamine impairment (step-through latency): effective at alleviating the impairment in the scopolamine-injected animals
Normal subjects [8]; first Phase I study (1, 4, 16, 32 mg)
  RAVLT memory scores: No difference in memory scores
Normal subjects [8]; second Phase I study (25, 50, 100 mg) (FIG. 34)
  RAVLT mean values vs placebo: all dose groups have mean values greater than placebo at 30 minutes and 24 hours
Long-Evans rats [5]
  dose that significantly improved performance on the passive avoidance task: 0.5 mg/kg
Normal subjects [9]; 150 mg dose, a few subjects in the second Phase I trial
  tolerability: not well tolerated
Normal subjects [9]; first and second Phase I trials (1-100 mg)
  tolerability: generally well tolerated
Normal subjects [10]; 25 mg (p=0.0177) and 150 mg (p=0.0254) (FIG. 36)
  Picture Recognition-Sensitivity Index vs placebo: significant benefits
Normal subjects [10]; 50 mg (p=0.0002), 100 mg (p=0.0001) and 150 mg (p=0.0001) (FIG. 38)
  Information Processing False Alarms vs placebo: significant decrements against placebo
Normal subjects [10]; 100 mg (p=0.0002) and 150 mg (p=0.0001) (FIG. 37)
  Information Processing Targets Detected vs placebo: significant benefits
Normal subjects [10]; 25, 50, 100, 150 mg (FIG. 35)
  speed of response (Total Speed score): dose-dependent effect on speed of response
